Test results published in the NIST ThermoML archive (doi:10.1016/j.fluid.2014.10.002).
Values joined by “and” are separate entries in the source; they are usually repeats but may differ in a detail not shown here. Equal entries are not always repeated. ± gives the expanded uncertainty stated by the source.

Settings: Liquid, Vibrating wire viscometry

CCCCC(CC)COC(=O)c1ccc(C(=O)OCC(CC)CCCC)c(C(=O)OCC(CC)CCCC)c1 (stereo unspecified) [tris(2-ethylhexyl) trimellitate]
Settings | viscosity
343.14 K, 49870 kPa | 53.82 ± 1.4 mPa·s and 53.79 ± 1.4 mPa·s
343.14 K, 50340 kPa | 53.74 ± 1.4 mPa·s
343.14 K, 50350 kPa | 53.88 ± 1.4 mPa·s
343.14 K, 50360 kPa | 53.81 ± 1.4 mPa·s and 53.95 ± 1.4 mPa·s and 53.91 ± 1.4 mPa·s
343.14 K, 65050 kPa | 68.46 ± 1.5 mPa·s
343.14 K, 65060 kPa | 68.25 ± 1.5 mPa·s
343.14 K, 65070 kPa | 68.22 ± 1.5 mPa·s
343.14 K, 65080 kPa | 68.37 ± 1.5 mPa·s
343.14 K, 65100 kPa | 68.38 ± 1.5 mPa·s
343.15 K, 1040 kPa | 22.81 ± 0.5 mPa·s
343.15 K, 1050 kPa | 22.74 ± 0.5 mPa·s
343.15 K, 1060 kPa | 22.78 ± 0.5 mPa·s
343.15 K, 1070 kPa | 22.74 ± 0.5 mPa·s
343.15 K, 1090 kPa | 22.81 ± 0.5 mPa·s
343.15 K, 2540 kPa | 23.48 ± 0.49 mPa·s and 23.4 ± 0.5 mPa·s
343.15 K, 2580 kPa | 23.42 ± 0.49 mPa·s
343.15 K, 4800 kPa | 24.49 ± 0.52 mPa·s
343.15 K, 4820 kPa | 24.51 ± 0.52 mPa·s
343.15 K, 4880 kPa | 24.44 ± 0.52 mPa·s
343.15 K, 4900 kPa | 24.44 ± 0.52 mPa·s and 24.52 ± 0.52 mPa·s and 24.43 ± 0.52 mPa·s
343.15 K, 7530 kPa | 25.82 ± 0.54 mPa·s
343.15 K, 7590 kPa | 25.76 ± 0.54 mPa·s
343.15 K, 7630 kPa | 25.78 ± 0.54 mPa·s
343.15 K, 7650 kPa | 25.77 ± 0.54 mPa·s
343.15 K, 10140 kPa | 27.08 ± 0.57 mPa·s
343.15 K, 15040 kPa | 29.65 ± 0.63 mPa·s and 29.63 ± 0.63 mPa·s
343.15 K, 15050 kPa | 29.64 ± 0.63 mPa·s
343.15 K, 15060 kPa | 29.74 ± 0.63 mPa·s
343.15 K, 15070 kPa | 29.73 ± 0.63 mPa·s
343.15 K, 15090 kPa | 29.74 ± 0.63 mPa·s
358.18 K, 2460 kPa | 14.15 ± 0.3 mPa·s
358.18 K, 2470 kPa | 14.13 ± 0.3 mPa·s
358.18 K, 2480 kPa | 14.11 ± 0.3 mPa·s
358.18 K, 2490 kPa | 14.11 ± 0.3 mPa·s
358.18 K, 2500 kPa | 14.16 ± 0.3 mPa·s
358.18 K, 2530 kPa | 14.14 ± 0.3 mPa·s
358.18 K, 4840 kPa | 14.65 ± 0.31 mPa·s
358.18 K, 4860 kPa | 14.68 ± 0.31 mPa·s
358.18 K, 4920 kPa | 14.69 ± 0.31 mPa·s
358.18 K, 4960 kPa | 14.64 ± 0.31 mPa·s
358.18 K, 4990 kPa | 14.64 ± 0.31 mPa·s
358.18 K, 7360 kPa | 15.35 ± 0.32 mPa·s
358.18 K, 7370 kPa | 15.37 ± 0.32 mPa·s
358.18 K, 7390 kPa | 15.35 ± 0.32 mPa·s
358.18 K, 7410 kPa | 15.34 ± 0.32 mPa·s
358.18 K, 7420 kPa | 15.37 ± 0.32 mPa·s and 15.38 ± 0.32 mPa·s
358.18 K, 10350 kPa | 16.11 ± 0.34 mPa·s
358.18 K, 10380 kPa | 16.12 ± 0.34 mPa·s
358.18 K, 10410 kPa | 16.11 ± 0.34 mPa·s
358.18 K, 15320 kPa | 17.52 ± 0.37 mPa·s
358.18 K, 20050 kPa | 18.99 ± 0.4 mPa·s
358.18 K, 20070 kPa | 19.03 ± 0.4 mPa·s and 18.97 ± 0.4 mPa·s
358.18 K, 20090 kPa | 18.99 ± 0.4 mPa·s
358.18 K, 20120 kPa | 18.99 ± 0.4 mPa·s
358.18 K, 20130 kPa | 19.05 ± 0.4 mPa·s
358.18 K, 40240 kPa | 26.25 ± 0.55 mPa·s
358.18 K, 40250 kPa | 26.27 ± 0.55 mPa·s
358.18 K, 40260 kPa | 26.24 ± 0.55 mPa·s
358.18 K, 40280 kPa | 26.21 ± 0.55 mPa·s
358.18 K, 40290 kPa | 26.24 ± 0.55 mPa·s
358.19 K, 1290 kPa | 13.79 ± 0.3 mPa·s
358.19 K, 1330 kPa | 13.79 ± 0.3 mPa·s
358.19 K, 1380 kPa | 13.85 ± 0.3 mPa·s
358.19 K, 10470 kPa | 16.13 ± 0.34 mPa·s
358.19 K, 15340 kPa | 17.51 ± 0.37 mPa·s
358.19 K, 15360 kPa | 17.51 ± 0.37 mPa·s
358.19 K, 15370 kPa | 17.52 ± 0.37 mPa·s
358.19 K, 15390 kPa | 17.53 ± 0.37 mPa·s
358.19 K, 15410 kPa | 17.54 ± 0.37 mPa·s
358.19 K, 30310 kPa | 22.42 ± 0.47 mPa·s
358.19 K, 30360 kPa | 22.4 ± 0.5 mPa·s
358.19 K, 30380 kPa | 22.43 ± 0.47 mPa·s and 22.47 ± 0.47 mPa·s and 22.46 ± 0.47 mPa·s
358.19 K, 50360 kPa | 30.62 ± 0.64 mPa·s
358.19 K, 50380 kPa | 30.63 ± 0.64 mPa·s
358.19 K, 50390 kPa | 30.61 ± 0.64 mPa·s
358.19 K, 50400 kPa | 30.65 ± 0.65 mPa·s
358.19 K, 50420 kPa | 30.65 ± 0.65 mPa·s
358.19 K, 65540 kPa | 38.26 ± 0.81 mPa·s
358.19 K, 65550 kPa | 38.23 ± 0.81 mPa·s
358.19 K, 65570 kPa | 38.28 ± 0.81 mPa·s
358.19 K, 65600 kPa | 38.23 ± 0.81 mPa·s
358.19 K, 65610 kPa | 38.23 ± 0.81 mPa·s
373.17 K, 1070 kPa | 8.988 ± 0.19 mPa·s and 8.981 ± 0.19 mPa·s and 8.984 ± 0.19 mPa·s
373.17 K, 1080 kPa | 8.99 ± 0.19 mPa·s
373.17 K, 2690 kPa | 9.227 ± 0.2 mPa·s
373.17 K, 2720 kPa | 9.242 ± 0.2 mPa·s
373.17 K, 2730 kPa | 9.241 ± 0.2 mPa·s
373.17 K, 5100 kPa | 9.651 ± 0.2 mPa·s
373.17 K, 5110 kPa | 9.649 ± 0.2 mPa·s and 9.654 ± 0.2 mPa·s
373.17 K, 5120 kPa | 9.651 ± 0.2 mPa·s
373.17 K, 5130 kPa | 9.669 ± 0.2 mPa·s
373.17 K, 5140 kPa | 9.653 ± 0.2 mPa·s
373.17 K, 7440 kPa | 10.06 ± 0.21 mPa·s
373.17 K, 7470 kPa | 10.05 ± 0.21 mPa·s
373.17 K, 7480 kPa | 10.03 ± 0.21 mPa·s
373.17 K, 7500 kPa | 10.03 ± 0.21 mPa·s
373.17 K, 10430 kPa | 10.53 ± 0.22 mPa·s
373.17 K, 10450 kPa | 10.57 ± 0.22 mPa·s
373.17 K, 15160 kPa | 11.29 ± 0.24 mPa·s
373.17 K, 15180 kPa | 11.28 ± 0.24 mPa·s
373.17 K, 15210 kPa | 11.32 ± 0.24 mPa·s and 11.33 ± 0.24 mPa·s and 11.27 ± 0.24 mPa·s
373.17 K, 65290 kPa | 23.71 ± 0.5 mPa·s
373.18 K, 2460 kPa | 9.209 ± 0.19 mPa·s and 9.224 ± 0.19 mPa·s and 9.213 ± 0.19 mPa·s
373.18 K, 2470 kPa | 9.234 ± 0.19 mPa·s
373.18 K, 2500 kPa | 9.245 ± 0.2 mPa·s
373.18 K, 2710 kPa | 9.252 ± 0.2 mPa·s
373.18 K, 10440 kPa | 10.57 ± 0.22 mPa·s
373.18 K, 10450 kPa | 10.52 ± 0.22 mPa·s
373.18 K, 10460 kPa | 10.56 ± 0.22 mPa·s
373.18 K, 20250 kPa | 12.27 ± 0.26 mPa·s and 12.26 ± 0.26 mPa·s
373.18 K, 20260 kPa | 12.27 ± 0.26 mPa·s
373.18 K, 20270 kPa | 12.29 ± 0.26 mPa·s
373.18 K, 20290 kPa | 12.3 ± 0.3 mPa·s
373.18 K, 20320 kPa | 12.28 ± 0.26 mPa·s
373.18 K, 29980 kPa | 14.31 ± 0.3 mPa·s
373.18 K, 29990 kPa | 14.32 ± 0.3 mPa·s
373.18 K, 30000 kPa | 14.27 ± 0.3 mPa·s
373.18 K, 30010 kPa | 14.3 ± 0.3 mPa·s
373.18 K, 30030 kPa | 14.28 ± 0.3 mPa·s
373.18 K, 40130 kPa | 16.58 ± 0.35 mPa·s
373.18 K, 40140 kPa | 16.57 ± 0.35 mPa·s
373.18 K, 40150 kPa | 16.63 ± 0.35 mPa·s
373.18 K, 40170 kPa | 16.61 ± 0.35 mPa·s
373.18 K, 40190 kPa | 16.64 ± 0.35 mPa·s
373.18 K, 50280 kPa | 19.18 ± 0.4 mPa·s
373.18 K, 50290 kPa | 19.21 ± 0.4 mPa·s and 19.23 ± 0.41 mPa·s
373.18 K, 50310 kPa | 19.17 ± 0.4 mPa·s
373.18 K, 50320 kPa | 19.23 ± 0.41 mPa·s
373.18 K, 65330 kPa | 23.7 ± 0.5 mPa·s
373.18 K, 65350 kPa | 23.72 ± 0.5 mPa·s
373.18 K, 65370 kPa | 23.68 ± 0.5 mPa·s
